Assay results as given in patent US8729052B2, “Composition for the prevention and treatment of alopecia, or for hair growth” (Phytos Co., Ltd., priority 2008, dated 2014).
“Also recorded” adds a separate entry of the source.

Experiments:
[1] = test system: CAM (chorioallantoic membrane); test: Test for angiogenic activity, CAM (chorioallantoic membrane) assay; assay type: in vivo, chicken; conditions: for Angiogenic activity compared to the control: CAM assay, Table 3 and FIG. 5
Procedure: NAPS-1-P 0.5%-containing liposomes and the PhS-1-P 0.5%-containing liposomes, respectively prepared in Examples 1 and 4, were assayed for angiogenesis, with the use of phosphate buffered saline as a negative control, sphingosine-1-phosphate (PS-1-P) as a positive control, and the angiogenesis inhibitor trimethyl phytosphingosine (TMP) as a suppressive control.
For angiogenesis assay, CAM (chorioallantoic membrane) was used as a model. CAM from developing chicken eggs is routinely used in biological and biomedical research to investigate angiogenesis.
Fertile hen's eggs which were within one day after being laid, were purchased. Three days later, 6 mL of the white was removed from the fertile hen's eggs using a syringe, as illustrated in i of FIG. 4. Afterward, the eggs were opened at the top, as illustrated in ii of FIG. 4. From three days after egg-laying, the embryo started to develop. The membrane surrounding the embryo is CAM. Then, a cover slip on which a test drug was dropwise loaded and dried was placed on CAM, as illustrated in iii of FIG. 4. After the lapse of three days, the eggs were examined for drug-induced angiogenesis under a microscope, as illustrated in iv of FIG. 4.

[2] = test system: Balb/c mice, depilated area; test: Test for hair growth in Balb/c mice (2), once a day for four weeks; assay type: in vivo; conditions: applied once a day for four weeks
Source text: Balb/c mice, 5-6 weeks old, were purchased and shaved on the side to remove hair partially, followed by applying a depilatory cream to the shaved area to remove hair therefrom completely. The mice which were not completely depilated were excluded from the test. The suitable mice were randomly housed in cages at a population of three per cage. A total of five cages were employed.
The mice were left for one day after hair removal, and then the depilated area was coated once a day with the NAPS-1-P-containing liposomes prepared in Example 1. A total of 14 rounds of application were conducted. Hair growth was compared between treated groups and non-treated groups.
The NAPS-1-P 0.5%-containing liposomes (Example 1), the NAPS-1-P 1.0%-containing liposomes (Example 2), and the PhS-1-P 0.5%-containing liposomes (Example 4) were tested for hair growth activity in the same manner as in Experimental Example 1, with the exception that they were applied once a day for four weeks. In this context, Rogaine 5% (minoxidil 5% solution) was used as a positive control.

[3] = microscopic observation three days after placing test drug on CAM

Compound | Angiogenesis results: count graded + (weakly promotive of angiogenesis) [1, 3] | Angiogenesis results: count graded ++ (highly promotive of angiogenesis) [1, 3] | Angiogenesis results: count graded +/− (insignificantly promotive of angiogenesis) [1, 3] | Angiogenesis results: count graded − (weakly inhibitive of angiogenesis) [1, 3] | Angiogenesis results: count graded −− (highly inhibitive of angiogenesis) [1, 3] | Hair growth promoting activity, comparison between substances, concentrations or with minoxidil 5% solution (FIGS. 2 and 3) [2] | Angiogenic activity compared to the control [1]
CCCCCCCCCCCCC/C=C/[C@@H](O)[C@@H](N)COP(=O)(O)O [PS-1-P, sphingosine-1-phosphate, reference compound] | 5 | 4 | 1 |  |  |  | 
trimethyl phytosphingosine [TMP, reference compound] |  |  |  | 2 | 8 |  | 
CCCCCCCCCCCCCC[C@@H](O)[C@@H](O)[C@H](COP(=O)(O)O)NC(C)=O [NAPS-1-P, N-acetylphytosphingosine-1-phosphate] | 3 | 7 |  |  |  | superior of NAPS-1-P to PhS-1-P | significant angiogenic activity; also recorded: peak activity
CCCCCCCCCCCCCC[C@@H](O)[C@@H](O)[C@@H](N)COP(=O)(O)O [PhS-1-P, phytosphingosine-1-phosphate] | 5 | 4 | 1 |  |  |  | significant angiogenic activity
